{"source": "patent US20230141988A1", "about": "“PHARMACEUTICAL COMPOSITION FOR USE IN THE TREATMENT OF NEUROLOGICAL DISEASES” (Aclipse One Inc., priority 2020, published 2023)", "key": {"[1]": {"conditions": "rat, in vivo; for plasma concentration: male, SD", "protocol": "(§1) The vehicle for the IV, subcutaneous, PO and IN formulation contained “0.1% sodium metabisulfite solution”.\n(§2) Male SD rats were purchased from Si Bei Fu Laboratory Animal Technology Co. Ltd (Beijing, China). The animals were about 8 weeks old with body weights of 200-300 g on the dosing date. The animals were housed in a 12-hour light/12-hour dark cycle environment and had free access to food and water. All animals were fasted overnight and fed after 4 hours collection.\n(§3) Plasma samples were collected from jugular vein at each time point after IV, subcutaneous, PO and IN administrations.\n(§4) About 200 μL of blood samples were collected from each animal via jugular vein. These blood samples were placed into the tubes containing K2EDTA. And centrifugation at 3000 g for 10 minutes in a 4° C. centrifuge. The completion time from collection was less than 30 min. The stabilizing agent of ascorbic acid at 200 mg/mL was added in a proportion of 10% in plasma. The plasma samples were stored in a freezer at −75±15° C. prior to analysis. The completion time from collection was less than 60 min.\n(§5) Calibration standard working solutions were prepared at concentrations of 2, 5, 10, 20, 50, 100, 500, 1000, 5000 and 10000 ng/mL by serial dilution of the standard stock solution in 50% acetonitrile in water. Quality control working solutions at concentrations of 5, 10, 20, 500 and 8000 ng/mL were prepared by serial dilution of the standard stock solution in 50% acetonitrile in water. These QC samples were prepared on the day of analysis in the same way as calibration standards.\n(§6) For plasma samples, 2 μL of each calibration standard working solution (2, 5, 10, 20, 50, 100, 500, 1000, 5000 and 10000 ng/mL) was added to 20 μL of the blank SD rat plasma (with 10% 200 mg/mL ascorbic acid) to achieve calibration standards of 0.2-1000 ng/mL (0.2, 0.5, 1, 2, 5, 10, 50, 100, 500, 1000 ng/mL) in a total volume of 22 μL. Quality Control (QC) samples at 0.5 ng/mL (low-1), 1 ng/mL (low-2) and 2 ng/mL (low-3), 50 ng/mL (mid), 800 ng/mL (high) for plasma were prepared independently for those used for the calibration curves. These QC samples were prepared on the day of analysis in the same way as calibration standards. The total volumes of 22 μL of standards, 22 μL of QC samples and 22 μL of unknown samples (20 μL of unknown plasma (with 10% 200 mg/mL ascorbic acid) with 2 μL 50% acetonitrile) were added to 200 μL of acetonitrile containing IS to precipitate proteins. Then the samples were vortexed for 30 sec. After centrifugation at 4° C., 4700 rpm for 30 min, and supernatant was diluted 2 times with water, 10 μL of the diluted supernatant was injected into the LC-MS/MS system for quantitative analysis.\nAll the samples were processed on ice.\n(§7) The LC-MS/MS system consisted of two Shimadzu LC-30AD pumps, a DGU-20A5R degasser, a Rack changer II and LCMS-8060 LC/MS/MS instrument mass spectrometer.\n(§8) OD-3R Particle size 3 μm 4.6 mm×150 mm column at room temperature. The mobile phase was composed of A: Water (5 mM Ammonium Acetate); B: Ethanol (5 mM Ammonium Acetate). The flow rate was 0.5 mL/min. The injection volume was 10 μL.\n(§9) A multiple reaction monitoring (MRM) method was selected for quantitative analysis. […] The instrument parameters were set as follows: ion spray voltage: 8060; heating gas flow: 10 L/min; interface temperature: 250° C.; DL temperature: 220° C.; heat block temperature: 400° C.; drying gas flow: 10 L/min.\n(§10) Data acquisition was performed by Lab Solutions version 5.89 Software (Shimadzu). All concentration data was reported with 3 significant figures. Data statistics were performed using Excel 2010 software.\n(§11) The linear trapezoidal algorithm was used for AUC calculation."}, "[2]": {"test": "in vivo", "experimental": "Three non-naïve male beagle dogs supplied by Marshall Bioresources (Beijing, China) were used in this study. The animals were confirmed healthy before being assigned to the study. Each animal was given a unique identification number which was marked on ear and written on the cage card. The room(s) were controlled and monitored for relative humidity (targeted mean range 40% to 70%, and any excursion from this range for more than 3 hours will be documented as a deviation) and temperature (targeted mean range 18° C. to 26° C., and any excursion from this range will be documented as a deviation) with 10 to 20 air changes/hour. The rooms were on a 12-hour light/dark cycle except when interruptions are necessitated by study activities.\nAnimals were fed twice daily. Stock Dogs were fed approximately 220 grams of Certified Dog Diet daily (Beijing Keao Xieli Feed Co., Ltd. Beijing, P. R. China). These amounts could be adjusted as necessary based on food consumption of the group or an individual body weight change. For PO groups, animals were fed at 3:30 to 4:00 pm on the day prior to oral dosing and any remaining food was removed at 7:00 pm. Food was withheld until 4-hour post-dose. Animals were fed once on the day of dosing, with the amount of approximately 220 grams.\nThree male non-naïve beagle dogs were assigned to this study. […] The detailed dosing and sampling regimens are described in the following two tables:\nPO formulation preparations were processed in study facility on the day of dosing according to instructions provided by the sponsor. The concentrations of compounds in all dosing solutions were determined by HPLC/UV. Two aliquots were taken from each clear and three aliquots were taken from suspension formulations. All formulation samples were stored at 2-8° C. until analyzed by HPLC/UV. All dose formulation samples were analyzed in duplicate using HPLC/UV.\nIn plasma, approximately 0.5 mL blood was collected at each time point. All blood samples were collected from a peripheral vessel. All blood samples were transferred into commercially available tubes containing Potassium (K2) EDTA on wet ice and processed for plasma. Samples were centrifuged (3,000×g for 10 minutes at 2 to 8° C.) within 30 minutes of collection. After centrifugation, the stabilizing agent was added to the harvested plasma within 60 minutes. The samples were kept on ice and protected from sunlight (under yellow light). The stabilizing agent was ascorbic acid 200 mg/mL added in a proportion of 10% in plasma. The plasma samples were divided into two equal samples with each at least 0.2 ml (0.2*2 mL/sample) and transferred into labeled polypropylene micro-centrifuge tubes and stored frozen in a freezer set to maintain […] or lower until analyzed.\nIn CSF, about 0.1 mL/time point (50 μL*2 aliquots) of CSF were collected via the catheter implanted in the Cisterna Magna of conscious beagle dogs without any sedation. The procedures for CSF collection and handling were as follows: a polypropylene tube was weighed to accuracy of 0.1 mg (weight #1). CSF was collected and weighed the sample tube again (weight #2). Total CSF weight=weight #2−weight #1. The samples were kept on ice and protected from sunlight (under yellow light). Stabilizing agent was added within 60 minutes. The stabilizing agent was ascorbic acid 200 mg/mL added in a proportion of 10% in CSF. CSF samples were frozen on dry ice and stored at −60° C. or lower until bio-analysis.\nFor brain samples, different regions of brain were collected. Dogs were anesthetized and euthanasia according to SOP and collected the brain. The striatum, cortex and cerebellum were token rapidly and homogenized immediately (within 30 min) after being harvested. All the samples were stored at −60° C. or lower freezer finally.\nFor tissue homogenization, the homogenization solution was methanol:10 mM PBS=1:2 and set on dry ice. An empty conical tube was weighed, recorded, and set on dry ice."}, "[3]": {"test": "in vivo", "conditions": "male, SD, rat", "protocol": "The vehicle for the IN and PO formulation contained “0.1% sodium metabisulfite solution”.\nThe animals were about 8 weeks old with body weights of 200-300 g on the dosing date. The animals were housed in a 12-hour light/12-hour dark cycle environment and had free access to food and water. All animals were fasted overnight and fed after 4 hours collection.\nFor group 2, plasma, CSF and brain samples were collected at 0.5 and 1 h post dose.\nFor Group 2 (PO dose, 10.56 mg/kg), blood, CSF and brain samples were collected from 3 mice at two time point: 0.5 h and 1 h post dose.\nFor plasma samples, about 200 μL of blood samples were collected from each animal via jugular vein. These blood samples were placed into the tubes containing K2EDTA, and centrifuged at 3000 g for 10 minutes in a 4° C. centrifuge. The completion time from collection was less than 30 min. The stabilizing agent of ascorbic acid at 200 mg/mL was added in a proportion of 10% in plasma. The plasma samples were stored in a freezer at −75±15° C. prior to analysis. The completion time from collection was less than 60 min.\nFor brain and CSF samples, The animals were fully exsanguinated with a rising concentration of CO2 gas prior to CSF and brain collection. […]\nFor brain collection. […] The actual concentration was the detected value multiplied by the dilution factor. […]"}, "[4]": {"test": "Pharmacokinetic study, single IV, subcutaneous, PO and IN dose, male SD rats (plasma)", "conditions": "rat, in vivo", "protocol": "as §1, §2, §3, §4, §5, §6\nAll the samples were processed on ice.\nas §7, §8, §9, §10, §11"}, "[5]": {"test": "Solubility in aqueous media / aqueous buffer solutions", "type": "physicochemical", "conditions": "free base, aqueous media at various pH values"}, "[6]": {"conditions": "male, beagle, dog, in vivo, po, 10 mg/kg"}, "[7]": {"conditions": "male, beagle, dog, in vivo, po, 10 mg/kg, 0.5 h"}, "[8]": {"conditions": "single PO 10 mg/kg, 0.500 h, individual animal"}}, "note": "Like-named read-outs stand apart in the source and are kept apart here.", "data": [{"smiles": "CN1CCc2cccc3c2[C@@H]1Cc1ccc(O)c(O)c1-3", "values": [{"measurement": "plasma concentration", "setting": "[1]; 0.5 h", "result": 35.7, "unit": "ng/mL"}, {"measurement": "plasma concentration", "setting": "[1]; iv, 0.88 mg/kg, 1 h", "result": 6.23, "unit": "ng/mL"}, {"measurement": "animal death related to drug administration", "setting": "[1]", "result": "no animal death related to drug administration"}, {"measurement": "drug-related changes in clinical signs and behavioral responses", "setting": "[1]", "result": "no obvious drug-related changes in clinical signs and behavioral responses"}, {"measurement": "AUC(0-t)", "setting": "[2]; [6]", "result": 86.4, "unit": "ng·h/mL"}, {"measurement": "Tlast", "setting": "[2]; [6]", "result": 0.500, "unit": "h"}, {"measurement": "CSF concentration", "setting": "[2]; [7]", "result": 2.71, "unit": "ng/mL"}, {"measurement": "Striatum concentration", "setting": "[2]; [7]", "result": 145, "unit": "ng/g"}, {"measurement": "Kp", "setting": "[2]; male, beagle, dog, in vivo, po, 10 mg/kg, AUClast ratio of CSF to plasma", "result": "0.00888 ± 0.0031"}, {"measurement": "Cmax", "setting": "[2]; male, beagle, dog, in vivo, po, 10 mg/kg, Cmax, plasma, single PO 10 mg/kg, individual animal", "result": 265, "unit": "ng/mL"}, {"measurement": "MRT last", "setting": "[2]; male, beagle, dog, in vivo, po, 10 mg/kg, MRTlast", "result": 19.7, "unit": "min"}, {"measurement": "concentration at […]", "setting": "[2]; male, beagle, dog, in vivo, po, 10 mg/kg, plasma concentration", "result": 255, "unit": "ng/mL"}, {"measurement": "concentration at 0.033 h", "setting": "[2]; male, beagle, dog, in vivo, po, 10 mg/kg, plasma concentration, single PO 10 mg/kg, 119 s, individual animal", "result": 2.92, "unit": "ng/mL"}, {"measurement": "Kp at 0.5 h", "setting": "[2]; male, beagle, dog, in vivo, po, 10 mg/kg, ratio of cerebellum/plasma", "result": "0.505 ± 0.117"}, {"measurement": "Kp at 0.5 h", "setting": "[2]; male, beagle, dog, in vivo, po, 10 mg/kg, ratio of cortex/plasma", "result": "0.704 ± 0.184"}, {"measurement": "Kp at 0.5 h", "setting": "[2]; male, beagle, dog, in vivo, po, 10 mg/kg, ratio of striatum/plasma", "result": "0.666 ± 0.0544"}, {"measurement": "Cerebellum concentration", "setting": "[2]; [8]", "result": 129, "unit": "ng/g"}, {"measurement": "Cortex concentration", "setting": "[2]; [8]", "result": 124, "unit": "ng/g"}, {"measurement": "Striatum concentration", "setting": "[2]; [8]", "result": 137, "unit": "ng/g"}, {"measurement": "Kp at 0.5 h", "setting": "[3]", "result": 0.233}, {"measurement": "concentration at 0.5 h", "setting": "[3]", "result": 299, "unit": "ng/g"}, {"measurement": "Cl", "setting": "[4]; iv, 0.88 mg/kg", "result": 209, "unit": "mL/min/kg"}, {"measurement": "AUClast/D", "setting": "[4]; po, […]", "result": 7.39, "unit": "mg·h/mL"}, {"measurement": "AUClast/D", "setting": "[4]; sc, 0.88 mg/kg", "result": 77.3, "unit": "mg·h/mL"}, {"measurement": "solubility", "setting": "[5]", "result": "low solubilities"}]}]}
